Consider 23 compounds from US10383912B2, “Tunable pH-sensitive linker for controlled drug release” (Washington State University, priority 2014, dated 2019).

SMILES strings stand for the structures.

Series [1] can be described thus: pH stability: half-lives for P—N bond hydrolysis of model linkers. It is filed as physicochemical. An excerpt:
The present disclosure provides a method of screening for conjugates that can deliver an agent at a specific pH. In one aspect, conjugates having formula (I) comprising various substituents neighboring the ionizable group and having varying length between the ionizable group and the phosphorus center could be screened to determine which conjugates will hydrolyze at pH 3.0, 3.5, 4.0, 4.5, 5.0, 5.5, 6.0, and 6.5. In another aspect, a specific conjugate can be screened to determine at which pH it will hydrolyze or which pH its rate of hydrolysis is the fastest. The hydrolysis of the conjugate can be monitored by nuclear magnetic resonance (NMR) (FIG. 6), HPLC, spectrophotometric methods, or mass spectrometry.
It was observed from studies on distance effects that proximity of a neighboring, but electronically isolated, functional group, can be used to alter the stability of a phorphoramidate bond.

The nature of series [2]: Plasma stability of cleavable linkers. Format: in vitro ADME. Here is the method: When a conjugate is administered to a subject in vivo, its plasma stability is important. The present disclosure provides conjugates with the desired plasma stability. Plasma stability of cleavable linkers with the desired release profile are provided herein.

As for `O=P(O)(NCCc1ccccc1)OCCCc1cccnc1` [Entry H5], in series [1], the “½ Lives for P—N Bond Hydrolysis, pH 3” value came out at 1.9 hr; the “½ Lives for P—N Bond Hydrolysis, pH 4.5” value is 19.3 hr; the “½ Lives for P—N Bond Hydrolysis, pH 6.5 (result in words)” value was “Stable”; the “½ Lives for P—N Bond Hydrolysis, pH 7.4” value came to 90 day days. Moreover, the “½ Lives for P—N Bond Hydrolysis, pH 5.5” value in series [1] (pH 5.5) is 8 day days.

Take `O=P(O)(Nc1ccccc1)OCCCc1cccnc1` [Entry H7]: in series [1], the “½ Lives for P—N Bond Hydrolysis, pH 3” value is 1.6 day days; the “½ Lives for P—N Bond Hydrolysis, pH 4.5” value came to 133 days; the “½ Lives for P—N Bond Hydrolysis, pH 4.5 (result in words)” value is recorded as “Stable”; the “½ Lives for P—N Bond Hydrolysis, pH 6.5” value stood at 8 days. For the same compound, in series [1], the “½ Lives for P—N Bond Hydrolysis, pH 6.5 (result in words)” value is reported as “STABLE” and the “½ Lives for P—N Bond Hydrolysis, pH 7.4” value is recorded as 27 day days. For the same compound, the “½ Lives for P—N Bond Hydrolysis, pH 5.5” value in series [1] (pH 5.5) is 16 day days.

For the compound `CN(CCc1ccccc1)P(=O)(O)OCCCc1cccnc1` [Entry H9], the “½ Life for P—N Bond Hydrolysis, Plasma” value in series [2] (Plasma (pH 7.23)) is 27.5 h. Moreover, in series [1], the “½ Lives for P—N Bond Hydrolysis, pH 3” value was found to be 0.48 hr; the “½ Lives for P—N Bond Hydrolysis, pH 6.5” value turned out to be 19.3 hr; the “½ Lives for P—N Bond Hydrolysis, pH 7.4” value was determined as 2.7 days. Moreover, in series [1] (pH 5.5), the “½ Lives for P—N Bond Hydrolysis, pH 5.5” value turned out to be 3.2 hr.

Turning to `CN(c1ccccc1)P(=O)(O)OCCCc1cccnc1` [Entry H11], in series [1], the “½ Lives for P—N Bond Hydrolysis, pH 3” value is recorded as 0.48 hr; the “½ Lives for P—N Bond Hydrolysis, pH 6.5” value is recorded as 1.1 days; the “½ Lives for P—N Bond Hydrolysis, pH 7.4” value amounted to 10 day days. The “½ Lives for P—N Bond Hydrolysis, pH 5.5” value in series [1] (pH 5.5) was determined as 9.6 hr.

Turning to `O=P(O)(NCCc1ccccc1)OCCCc1ccccn1` [Entry H41], in series [1], the “½ Lives for P—N Bond Hydrolysis, pH 3” value is recorded as 2.1 hr; the “½ Lives for P—N Bond Hydrolysis, pH 4.5” value is listed as 9.63 hr; the “½ Lives for P—N Bond Hydrolysis, pH 6.5” value came to 24.1 hr; the “½ Lives for P—N Bond Hydrolysis, pH 7.4” value was found to be 11 days. In series [1] (pH 5.5), the “½ Lives for P—N Bond Hydrolysis, pH 5.5” value turned out to be 19.3 hr.

With `CN(CCc1ccccc1)P(=O)(O)OCCCc1ccccn1` [Entry H43], the “½ Life for P—N Bond Hydrolysis, Plasma” value in series [2] (Plasma (pH 7.38)) is 19.3 h. Further, in series [1], the “½ Lives for P—N Bond Hydrolysis, pH 3” value was 0.21 hr; the “½ Lives for P—N Bond Hydrolysis, pH 6.5” value is recorded as 3.85 hr; the “½ Lives for P—N Bond Hydrolysis, pH 7.4” value amounted to 21.4 hr. For the same compound, in series [1] (pH 5.5), the “½ Lives for P—N Bond Hydrolysis, pH 5.5” value amounted to 1.2 hr.

Consider `O=P(O)(Nc1ccccc1)OCCCc1ccccn1` [Entry H45], for which, in series [1], the “½ Lives for P—N Bond Hydrolysis, pH 3” value came out at 1.6 day days; the “½ Lives for P—N Bond Hydrolysis, pH 4.5” value turned out to be 8.9 day days; the “½ Lives for P—N Bond Hydrolysis, pH 6.5” value is given as 8 days; the “½ Lives for P—N Bond Hydrolysis, pH 7.4” value turned out to be 4 day days. In addition, the “½ Lives for P—N Bond Hydrolysis, pH 5.5” value in series [1] (pH 5.5) is 2.0 days.

In the case of `CN(CCc1ccccc1)P(=O)(O)OCCc1ccccn1` [Entry H69], in series [1], the “½ Lives for P—N Bond Hydrolysis, pH 3 (result in words)” value was “Unstable”; the “½ Lives for P—N Bond Hydrolysis, pH 4.5 (result in words)” value is “Unstable”; the “½ Lives for P—N Bond Hydrolysis, pH 6.5 (result in words)” value was “Unstable”; the “½ Lives for P—N Bond Hydrolysis, pH 7.4 (result in words)” value is recorded as “Unstable”. In series [1] (pH 5.5), the “½ Lives for P—N Bond Hydrolysis, pH 5.5 (result in words)” value is recorded as “Unstable”.

With `O=P(O)(Nc1ccccc1)OCCc1ccccn1` [Entry H85], in series [1], the “½ Lives for P—N Bond Hydrolysis, pH 3” value is listed as 0.32 hr; the “½ Lives for P—N Bond Hydrolysis, pH 6.5” value is listed as 1.9 hr; the “½ Lives for P—N Bond Hydrolysis, pH 7.4” value turned out to be 9.6 hr. For the same compound, in series [1] (pH 5.5), the “½ Lives for P—N Bond Hydrolysis, pH 5.5” value came to 0.96 hr.

With `O=P(O)(NCCc1ccccc1)OCCc1cccnc1` [Entry H97], in series [1], the “½ Lives for P—N Bond Hydrolysis, pH 3” value worked out at 2.8 hr; the “½ Lives for P—N Bond Hydrolysis, pH 6.5” value is reported as 4 days; the “½ Lives for P—N Bond Hydrolysis, pH 7.4” value worked out at 16 days. Besides, in series [1] (pH 5.5), the “½ Lives for P—N Bond Hydrolysis, pH 5.5” value was determined as 1.6 days.

Consider `CN(CCc1ccccc1)P(=O)(O)OCCc1cccnc1` [Entry H99], for which, in series [1], the “½ Lives for P—N Bond Hydrolysis, pH 3” value amounted to 0.39 hr; the “½ Lives for P—N Bond Hydrolysis, pH 4.5” value is recorded as 1.93 hr; the “½ Lives for P—N Bond Hydrolysis, pH 6.5” value was determined as 9.6 hr; the “½ Lives for P—N Bond Hydrolysis, pH 7.4” value was 1.6 days. Further, the “½ Lives for P—N Bond Hydrolysis, pH 5.5” value in series [1] (pH 5.5) is on record as 3.2 hr.

As for `CN(c1ccccc1)P(=O)(O)OCCc1cccnc1` [Entry H105], in series [1], the “½ Lives for P—N Bond Hydrolysis, pH 3” value was 0.64 hr; the “½ Lives for P—N Bond Hydrolysis, pH 4.5” value is given as 3.85 hr; the “½ Lives for P—N Bond Hydrolysis, pH 6.5” value worked out at 19.3 hr; the “½ Lives for P—N Bond Hydrolysis, pH 7.4” value is listed as 10 days. For the same compound, in series [1] (pH 5.5), the “½ Lives for P—N Bond Hydrolysis, pH 5.5” value is on record as 9.6 hr.

For the compound `O=P(O)(Nc1ccccc1)OCCc1cccnc1` [Entry H113], in series [1], the “½ Lives for P—N Bond Hydrolysis, pH 3” value is reported as 4 days; the “½ Lives for P—N Bond Hydrolysis, pH 4.5” value is listed as 20 days; the “½ Lives for P—N Bond Hydrolysis, pH 6.5” value is 2 days; the “½ Lives for P—N Bond Hydrolysis, pH 6.5 (result in words)” value was “Stable”. The “½ Lives for P—N Bond Hydrolysis, pH 7.4” value in series [1] was determined as 16 days. Further, the “½ Lives for P—N Bond Hydrolysis, pH 5.5” value in series [1] (pH 5.5) was found to be 8 days.

As for `CN(c1ccccc1)P(=O)(O)OCCc1ccccn1` [Entry H115], in series [1], the “½ Lives for P—N Bond Hydrolysis, pH 3 (result in words)” value is “Unstable”; the “½ Lives for P—N Bond Hydrolysis, pH 4.5 (result in words)” value is “Unstable”; the “½ Lives for P—N Bond Hydrolysis, pH 6.5 (result in words)” value is reported as “Unstable”; the “½ Lives for P—N Bond Hydrolysis, pH 7.4 (result in words)” value is listed as “Unstable”. Further, the “½ Lives for P—N Bond Hydrolysis, pH 5.5 (result in words)” value in series [1] (pH 5.5) is reported as “Unstable”.

As for `O=P(O)(NCCc1ccccc1)OCCc1ccccn1` [Entry H119], in series [1], the “½ Lives for P—N Bond Hydrolysis, pH 3 (result in words)” value is “Unstable”; the “½ Lives for P—N Bond Hydrolysis, pH 6.5” value was found to be 0.32 hr; the “½ Lives for P—N Bond Hydrolysis, pH 7.4” value is given as 2.1 hr. Further, the “½ Lives for P—N Bond Hydrolysis, pH 5.5” value in series [1] (pH 5.5) is on record as 0.13 hr.

Consider `CN(CCc1ccccc1)P(=O)(O)OCCCc1ccccc1` [Entry H133], for which the “½ Lives for P—N Bond Hydrolysis, pH 5.5” value in series [1] (pH 5.5) is recorded as 9.6 hr. Also, the “½ Life for P—N Bond Hydrolysis, pH 5.5, second value in parentheses” value in series [1] (pH 5.5, value in parentheses, meaning not explained) was found to be 1.9 hr.

In the case of `CN(c1ccccc1)P(=O)(O)OCCCc1ccccn1` [Entry H135], in series [1], the “½ Lives for P—N Bond Hydrolysis, pH 3” value turned out to be 0.48 hr; the “½ Lives for P—N Bond Hydrolysis, pH 6.5” value is listed as 3.9 hr; the “½ Lives for P—N Bond Hydrolysis, pH 7.4” value is 1.3 days. For the same compound, in series [1] (pH 5.5), the “½ Lives for P—N Bond Hydrolysis, pH 5.5” value is 2.1 hr.

On to `Cc1ccc(C(=O)NC(COP(=O)(O)N(C)CCc2ccccc2)C(=O)O)cc1` (stereo not drawn) [Entry H155], for which the “½ Lives for P—N Bond Hydrolysis, pH 5.5” value in series [1] (pH 5.5) amounted to 3.98 min. Moreover, in series [1], the “½ Lives for P—N Bond Hydrolysis, pH 6.5” value came to 9.63 min and the “½ Lives for P—N Bond Hydrolysis, pH 7.4” value is 1.93 hr.

`Cc1ccc(C(=O)NC(COP(=O)(O)NCCc2ccccc2)C(=O)O)cc1` (stereo not drawn) [Entry H157]: in series [1], the “½ Lives for P—N Bond Hydrolysis, pH 4.5” value was 5.25 min; the “½ Lives for P—N Bond Hydrolysis, pH 6.5” value was 1.93 hr; the “½ Lives for P—N Bond Hydrolysis, pH 7.4” value is 19.3 hr. Moreover, the “½ Lives for P—N Bond Hydrolysis, pH 5.5” value in series [1] (pH 5.5) worked out at 38.5 min.

As for `Cc1ccc(C(=O)NC(COP(=O)(O)Nc2ccccc2)C(=O)O)cc1` (stereo not drawn) [Entry H159], in series [1], the “½ Lives for P—N Bond Hydrolysis, pH 3” value was determined as 12.8 min; the “½ Lives for P—N Bond Hydrolysis, pH 4.5” value is on record as 3.21 hr; the “½ Lives for P—N Bond Hydrolysis, pH 6.5” value was 2.0 days; the “½ Lives for P—N Bond Hydrolysis, pH 7.4” value came out at 26.7 days. In addition, the “½ Lives for P—N Bond Hydrolysis, pH 5.5” value in series [1] (pH 5.5) is listed as 19.25 hr.

In the case of `Cc1ccc(C(=O)NC(COP(=O)(O)N(C)c2ccccc2)C(=O)O)cc1` (stereo not drawn) [Entry H161], in series [1], the “½ Lives for P—N Bond Hydrolysis, pH 4.5” value is on record as 0.98 min; the “½ Lives for P—N Bond Hydrolysis, pH 6.5” value stood at 38.5 min; the “½ Lives for P—N Bond Hydrolysis, pH 7.4” value stood at 6.42 hr. Further, in series [1] (pH 5.5), the “½ Lives for P—N Bond Hydrolysis, pH 5.5” value came to 16.5 min.

As for `Cc1ccc(C(=O)NC(CCOP(=O)(O)N(C)CCc2ccccc2)C(=O)O)cc1` (stereo not drawn) [Entry H179], in series [1], the “½ Lives for P—N Bond Hydrolysis, pH 4.5” value is 0.96 hr and the “½ Lives for P—N Bond Hydrolysis, pH 7.4” value was 2 Days days. Besides, the “½ Lives for P—N Bond Hydrolysis, pH 5.5” value in series [1] (pH 5.5) came out at 9.62 hr.

For the compound `CN(c1ccccc1)P(=O)(O)OCc1ccccc1C(=O)O` [Entry I11], in series [1] (pH 5.5), the “½ Lives for P—N Bond Hydrolysis, pH 5.5” value came to 14.4 min. In addition, in series [1], the “½ Lives for P—N Bond Hydrolysis, pH 6.5” value is 57.8 min and the “½ Lives for P—N Bond Hydrolysis, pH 7.4” value is on record as 6.42 hr.
